# “And” between values parts separate entries of the source, which are not always exact repeats. Equal values may be shown once.
# Test system: 377384-186-R-J1-PDC complex spheroid viability
# Experiment: Anticancer human tumor 377384-186-R-J1-PDC patient-derived pancreatic carcinoma cell line growth inhibition [CLK]
# Conditions: for viability, T/C: stronger effect = lower value
# Summary of the method: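 Multi-cell-type spheroids combined patient-derived tumor cells with HUVEC endothelial cells and human mesenchymal stem cells. Paired agents were dosed in half-log steps down from about clinical Cmax, or from 10 microM where Cmax was unknown.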
# [1] = curve of first compound, second compound 0.0316 µM
# [2] = curve of first compound, second compound 0.1 µM
# [3] = curve of first compound, second compound 0.316 µM
# [4] = curve of first compound, second compound 1 µM
# [5] = curve of first compound, second compound 3.16 µM
# [6] = curve of first compound, second compound 10 µM
# [7] = second compound 0.0316 µM, first compound 0.0316 µM
# [8] = second compound 0.0316 µM, first compound 0.1 µM
# [9] = second compound 0.0316 µM, first compound 0.316 µM
# [10] = second compound 0.0316 µM, first compound 1 µM
# [11] = second compound 0.1 µM, first compound 0.0316 µM
# [12] = second compound 0.1 µM, first compound 0.1 µM
# [13] = second compound 0.1 µM, first compound 0.316 µM
# [14] = second compound 0.1 µM, first compound 1 µM
# [15] = second compound 0.316 µM, first compound 0.0316 µM
# [16] = second compound 0.316 µM, first compound 0.1 µM
# [17] = second compound 0.316 µM, first compound 0.316 µM
# [18] = second compound 0.316 µM, first compound 1 µM
# [19] = second compound 1 µM, first compound 0.0316 µM
# [20] = second compound 1 µM, first compound 0.1 µM
# [21] = second compound 1 µM, first compound 0.316 µM
# [22] = second compound 1 µM, first compound 1 µM
# [23] = second compound 3.16 µM, first compound 0.0316 µM
# [24] = second compound 3.16 µM, first compound 0.1 µM
# [25] = second compound 3.16 µM, first compound 0.316 µM
# [26] = second compound 3.16 µM, first compound 1 µM
# [27] = second compound 10 µM, first compound 0.0316 µM
# [28] = second compound 10 µM, first compound 0.1 µM
# [29] = second compound 10 µM, first compound 0.316 µM
# [30] = second compound 10 µM, first compound 1 µM
# 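Note: spheroids exposed to agents for 7 days before reading.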
# 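Throughout, for viability, T/C: luminescence signal used as a stand-in for viable cells.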
structure (smiles),measurement,setting,value
CCN1CCN(Cc2ccc(Nc3ncc(F)c(-c4cc(F)c5nc(C)n(C(C)C)c5c4)n3)nc2)CC1 + CN1CCN(c2cc(C(=O)Nc3cc4cc(-c5cnn(C)c5)ccc4cn3)ccn2)CC1,IC50,[1],364 nM
same,IC50,[2],514 nM
same,IC50,[3],< 3.16 nM
same,IC50,[4],< 3.16 nM
same,IC50,[5],< 3.16 nM
same,IC50,[6],< 3.16 nM
same,"viability, T/C","second compound 0.0316 µM, first compound 0.00316 µM",107%
same,"viability, T/C","second compound 0.0316 µM, first compound 0.01 µM",78.2%
same,"viability, T/C",[7],84%
same,"viability, T/C",[8],66.3%
same,"viability, T/C",[9],48.8%
same,"viability, T/C",[10],39.5%
same,"viability, T/C","second compound 0.1 µM, first compound 0.00316 µM",98.1%
same,"viability, T/C","second compound 0.1 µM, first compound 0.01 µM",101%
same,"viability, T/C",[11],76.7%
same,"viability, T/C",[12],79.8%
same,"viability, T/C",[13],54.6%
same,"viability, T/C",[14],40.5%
same,"viability, T/C","second compound 0.316 µM, first compound 0.00316 µM",24.1%
same,"viability, T/C","second compound 0.316 µM, first compound 0.01 µM",28.6%
same,"viability, T/C",[15],26%
same,"viability, T/C",[16],22.9%
same,"viability, T/C",[17],24.4%
same,"viability, T/C",[18],24.4%
same,"viability, T/C","second compound 1 µM, first compound 0.00316 µM",1.06%
same,"viability, T/C","second compound 1 µM, first compound 0.01 µM",1.3%
same,"viability, T/C",[19],1.79%
same,"viability, T/C",[20],1.66%
same,"viability, T/C",[21],1.27%
same,"viability, T/C",[22],1.25%
same,"viability, T/C","second compound 3.16 µM, first compound 0.00316 µM",0.33%
same,"viability, T/C","second compound 3.16 µM, first compound 0.01 µM",0.44%
same,"viability, T/C",[23],1.09%
same,"viability, T/C",[24],0.39%
same,"viability, T/C",[25],2.28%
same,"viability, T/C",[26],2.3%
same,"viability, T/C","second compound 10 µM, first compound 0.00316 µM",1.2%
same,"viability, T/C","second compound 10 µM, first compound 0.01 µM",0.43%
same,"viability, T/C",[27],0.55%
same,"viability, T/C",[28],0.44%
same,"viability, T/C",[29],1.76%
same,"viability, T/C",[30],0.24%
O=c1[nH]cc(F)c(=O)[nH]1,"viability, T/C",compound 0.0316 µM,88.5% and 94.6%
same,"viability, T/C",compound 0.1 µM,82.7% and 110%
same,"viability, T/C",compound 0.316 µM,93.3% and 88.5%
same,"viability, T/C",compound 1 µM,68.9% and 68.5%
same,"viability, T/C",compound 3.16 µM,50.5% and 51.5%
same,"viability, T/C",compound 10 µM,45.1% and 41.7%
same,IC50,curve of compound,2810 nM and 3050 nM
COC1C=CCC(C)C(C)S(=O)(=O)NC(=O)c2ccc3c(c2)N(CC2CCC21)CC1(CCCc2cc(Cl)ccc21)CO3 (stereo unspecified) + CN1CCN(c2cc(C(=O)Nc3cc4cc(-c5cnn(C)c5)ccc4cn3)ccn2)CC1,IC50,[1],5480 nM
same,IC50,[2],4950 nM
same,IC50,[3],< 31.6 nM
same,IC50,[4],< 31.6 nM
same,IC50,[5],< 31.6 nM
same,IC50,[6],< 31.6 nM
same,"viability, T/C",[7],114%
same,"viability, T/C",[8],95.2%
same,"viability, T/C",[9],96.5%
same,"viability, T/C",[10],102%
same,"viability, T/C","second compound 0.0316 µM, first compound 3.16 µM",84.9%
same,"viability, T/C","second compound 0.0316 µM, first compound 10 µM",11.8%
same,"viability, T/C",[11],115%
same,"viability, T/C",[12],69.2%
same,"viability, T/C",[13],98%
same,"viability, T/C",[14],84.5%
same,"viability, T/C","second compound 0.1 µM, first compound 3.16 µM",76.8%
same,"viability, T/C","second compound 0.1 µM, first compound 10 µM",10.2%
same,"viability, T/C",[15],32.5%
same,"viability, T/C",[16],20.9%
same,"viability, T/C",[17],24.3%
same,"viability, T/C",[18],20%
same,"viability, T/C","second compound 0.316 µM, first compound 3.16 µM",20.5%
same,"viability, T/C","second compound 0.316 µM, first compound 10 µM",3.02%
same,"viability, T/C",[19],0.47%
same,"viability, T/C",[20],1.66%
same,"viability, T/C",[21],1.4%
same,"viability, T/C",[22],1.15%
same,"viability, T/C","second compound 1 µM, first compound 3.16 µM",0.84%
same,"viability, T/C","second compound 1 µM, first compound 10 µM",0.75%
same,"viability, T/C",[23],0.58%
same,"viability, T/C",[24],0.33%
same,"viability, T/C",[25],0.31%
same,"viability, T/C",[26],0.37%
same,"viability, T/C","second compound 3.16 µM, first compound 3.16 µM",0.49%
same,"viability, T/C","second compound 3.16 µM, first compound 10 µM",0.39%
same,"viability, T/C",[27],0.42%
same,"viability, T/C",[28],0.68%
same,"viability, T/C",[29],0.44%
same,"viability, T/C",[30],0.59%
same,"viability, T/C","second compound 10 µM, first compound 3.16 µM",0.53%
same,"viability, T/C","second compound 10 µM, first compound 10 µM",0.17%
